In patent US10111890B2, “9-aminomethyl minocycline compounds and uses thereof” (Paratek Pharmaceuticals, Inc., priority 2016, dated 2018):

Tested on: ABSSSI known or suspected to be due to Gram-positive pathogens
Experiment: Phase 3 oral omadacycline vs oral linezolid in ABSSSI: Early Clinical Response 48-72 hours after first dose
Type: in vivo, human
Settings: for Early Clinical Success, %: micro-mITT, % of N1
[1] = 48-72 hours after first dose, mITT population
[2] = Cellulitis/erysipelas, actual type, 48-72 hours, mITT
[3] = Cellulitis/erysipelas, as randomized, 48-72 hours, mITT
[4] = Major Abscess, actual type, 48-72 hours, mITT
[5] = Major Abscess, as randomized, 48-72 hours, mITT
[6] = Wound Infection, actual type, 48-72 hours, mITT
[7] = Wound Infection, as randomized, 48-72 hours, mITT

CC(=O)NCC1CN(c2ccc(N3CCOCC3)c(F)c2)C(=O)O1 (stereo not shown) [Linezolid, N-[[3-(3-fluoro-4-morpholinophenyl)-2-oxooxazolidin-5-yl]methyl]acetamide, reference compound]
Early Clinical Response: Clinical Failure [1]: 32 (8.9) n (%) | Early Clinical Response: Clinical Failure or Indeterminate [1]: 63 (17.5) n (%) | Early Clinical Response: Indeterminate [1]: 31 (8.6) n (%) | Early Clinical Response: Clinical Success (48-72 hours after first dose, mITT population (N = 360 per arm)): 297 (82.5) n (%) | Early Clinical Response: Clinical Success (Cellulitis/erysipelas, actual type of infection, 48-72 hours, mITT): 65 (77.4) n (%) | Early Clinical Response: Clinical Failure [2]: 12 (14.3) n (%) | Early Clinical Response: Clinical Failure or Indeterminate [2]: 19 (22.6) n (%) | Early Clinical Response: Indeterminate [2]: 7 (8.3) n (%) | Early Clinical Response: Clinical Failure [3]: 12 (14.3) n (%) | Early Clinical Response: Clinical Failure or Indeterminate [3]: 19 (22.6) n (%) | Early Clinical Response: Indeterminate [3]: 7 (8.3) n (%) | Early Clinical Response: Clinical Success (Cellulitis/erysipelas, type of infection as randomized, 48-72 hours, mITT): 65 (77.4) n (%) | Early Clinical Response: Clinical Success (Major Abscess, actual type of infection, 48-72 hours, mITT): 55 (88.7) n (%) | Early Clinical Response: Clinical Failure [4]: 4 (6.5) n (%) | Early Clinical Response: Clinical Failure or Indeterminate [4]: 7 (11.3) n (%) | Early Clinical Response: Indeterminate [4]: 3 (4.8) n (%) | Early Clinical Response: Clinical Failure [5]: 4 (6.5) n (%) | Early Clinical Response: Clinical Failure or Indeterminate [5]: 7 (11.3) n (%) | Early Clinical Response: Indeterminate [5]: 3 (4.8) n (%) | Early Clinical Response: Clinical Success (Major Abscess, type of infection as randomized, 48-72 hours, mITT): 55 (88.7) n (%) | Early Clinical Response: Clinical Success (Wound Infection, actual type of infection, 48-72 hours, mITT): 177 (82.7) n (%) | Early Clinical Response: Clinical Failure [6]: 16 (7.5) n (%) | Early Clinical Response: Clinical Failure or Indeterminate [6]: 37 (17.3) n (%) | Early Clinical Response: Indeterminate [6]: 21 (9.8) n (%) | Early Clinical Response: Clinical Failure [7]: 16 (7.5) n (%) | Early Clinical Response: Clinical Failure or Indeterminate [7]: 37 (17.3) n (%) | Early Clinical Response: Indeterminate [7]: 21 (9.8) n (%) | Early Clinical Response: Clinical Success (Wound Infection, type of infection as randomized, 48-72 hours, mITT): 177 (82.7) n (%) | Early Clinical Success, % (baseline pathogen Clostridium perfringens, 48-72 hours after first dose): (100.0) % | Early Clinical Success, % (baseline pathogen Enterobacter cloacae, 48-72 hours after first dose): (83.3) % | Early Clinical Success, % (baseline pathogen Enterococcus faecalis VRE, 48-72 hours after first dose): (100.0) % | Early Clinical Success, % (baseline pathogen Enterococcus faecalis VSE, 48-72 hours after first dose): (60.0) % | Early Clinical Success, % (baseline pathogen Enterococcus faecalis, 48-72 hours after first dose): (66.7) % | Early Clinical Success, % (baseline pathogen Enterococcus faecium VSE, 48-72 hours after first dose): (100.0) % | Early Clinical Success, % (baseline pathogen Enterococcus faecium, 48-72 hours after first dose): (100.0) % | Early Clinical Success, % (baseline pathogen Escherichia coli, 48-72 hours after first dose): (100.0) % | Early Clinical Success, % (baseline pathogen Finegoldia magna, 48-72 hours after first dose): (0.0) % | Early Clinical Success, % (baseline pathogen Klebsiella pneumoniae, 48-72 hours after first dose): (83.3) % | Early Clinical Success, % (baseline pathogen MRSA, 48-72 hours after first dose): (88.8) % | Early Clinical Success, % (baseline pathogen MSSA, 48-72 hours after first dose): (79.2) % | Early Clinical Success, % (baseline pathogen Prevotella denticola, 48-72 hours after first dose): (100.0) % | Early Clinical Success, % (baseline pathogen Prevotella melaninogenica, 48-72 hours after first dose): (100.0) % | Early Clinical Success, % (baseline pathogen Staphylococcus aureus, 48-72 hours after first dose): (83.3) % | Early Clinical Success, % (baseline pathogen Streptococcus agalactiae, 48-72 hours after first dose): (50.0) % | Early Clinical Success, % (baseline pathogen Streptococcus anginosus group, 48-72 hours after first dose): (80.0) % | Early Clinical Success, % (baseline pathogen Streptococcus anginosus, 48-72 hours after first dose): (85.0) % | Early Clinical Success, % (baseline pathogen Streptococcus constellatus, 48-72 hours after first dose): (100.0) % | Early Clinical Success, % (baseline pathogen Streptococcus intermedius, 48-72 hours after first dose): (75.0) % | Early Clinical Success, % (baseline pathogen Streptococcus pyogenes, 48-72 hours after first dose): (81.3) %
